# Data reported in patent publication US20220265691A1, “METHODS FOR USE OF GENE EXPRESSION AS AN INDICATOR OF E-SELECTIN INHIBITOR EFFICACY AND CLINICAL OUTCOME FOR MULTIPLE TUMOR TYPES” (GLYCOMIMETICS, INC., priority 2019, published 2022).
# Experiments:
# [1] = test system: relapsed or refractory AML; experiment: Phase I/II trial of Formula I in combination with chemotherapy for AML; type: in vivo, human; conditions: for overall survival (OS): Formula I plus chemotherapy
# Protocol: Phase I/II trial of Formula I in combination with chemotherapy for AML: A specific glycomimetic antagonist of E-selectin (Formula I) was rationally designed based on the bioactive conformation of sialyl Le^a/x in the binding site of E-selectin. Treatment of AML relapsed/refractory patients with the compound of Formula I and chemotherapy were evaluated for response. In a Phase I trial, 19 patients were treated with the compound of Formula I twice a day at 5 mg/kg (n=6), 10 mg/kg (n=7), and 20 mg/kg doses (n=6), in combination with induction MEC (mitoxantrone, epotoside, and cytarabine) chemotherapy. In a Phase II trial, the treatment regimen comprised one 10 mg/kg dose of the compound of Formula I 24 hours prior to chemotherapy, then twice daily 10 mg/kg doses of the compound of Formula I throughout either MEC (mitoxantrone, etoposide, and cytarabine) or 7+3 (cytarabine for 7 days followed by 3 days of daunorubicin, idarubicin or mitoxantrone) chemotherapy up till 48 hours post-chemotherapy. AML blasts from the patients' bone marrow and peripheral blood were isolated, and the expression of E-selectin ligand on the blasts was measured using immunofluorescence. Patient response to treatment was also assessed.
# E-selectin = target: T1, E-selectin (Homo sapiens, UniProt P16581); experiment: E-Selectin Activity - competitive binding assay (sLea polyacrylamide / immobilized E-selectin/Ig chimera); conditions: inhibition of sLea conjugate binding to immobilized E-selectin/Ig chimera; read-out: IC50 (E-Selectin Antagonist Activity)
# T1 construct: fused on or other part: Immunoglobulin (Ig) part fused to E-selectin as a handle for immobilisation
# T1 sequence (P16581 22-175 limits assumed): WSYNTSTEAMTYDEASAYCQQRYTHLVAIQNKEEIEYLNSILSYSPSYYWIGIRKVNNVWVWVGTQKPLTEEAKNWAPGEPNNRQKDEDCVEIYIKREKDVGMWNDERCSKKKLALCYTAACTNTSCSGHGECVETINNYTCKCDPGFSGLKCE
# Protocol: The inhibition assay to screen and characterize antagonists of E-selectin is a competitive binding assay, from which IC50 values may be determined. E-selectin/Ig chimera are immobilized in 96 well microtiter plates by incubation at 37° C. for 2 hours. To reduce nonspecific binding, bovine serum albumin is added to each well and incubated at room temperature for 2 hours. The plate is washed and serial dilutions of the test compounds are added to the wells in the presence of conjugates of biotinylated, sLea polyacrylamide with streptavidin/horseradish peroxidase and incubated for 2 hours at room temperature.
# To determine the amount of sLe^a bound to immobilized E-selectin after washing, the peroxidase substrate, 3,3′,5,5′ tetramethylbenzidine (TMB) is added. After 3 minutes, the enzyme reaction is stopped by the addition of H3PO4, and the absorbance of light at a wavelength of 450 nm is determined. The concentration of test compound required to inhibit binding by 50% is determined.
SMILES,overall survival (OS) ([1]; patients with greater than 10% of blasts expressing E-selectin ligand (HECA-452; high expressers)) [months],overall survival (OS) ([1]; patients with less than 10% blasts expressing E-selectin ligand (HECA-452; low expressers)) [months],"response rate (CR/CRi) ([1]; patients with relapsed or refractory AML, compound of Formula I plus chemotherapy) [%]","CR/CRi rate after a single course of induction treatment ([1]; relapsed or refractory AML, single course of induction, higher than historical controls treated with MEC) [%]",IC50 (E-selectin) [nM]
CCC1CC(C(=O)NCCNC(=O)CCOCCOCCOCCOCCOCCOCCOCCOCCOCCOCCOCCOC)C[C@@H](O[C@@H]2O[C@@H](CO)[C@H](O)C(O[C@@H](CC3CCCCC3)C(=O)O)C2NC(C)=O)[C@@H]1OC1O[C@@H](C)[C@H](O)C(O)[C@@H]1O (some centres unmarked) [compound of Formula I],12.7,5.2,41,47,–
CCC1CC(C(=O)NCCNC(=O)c2cn(CC(COS(=O)(=O)O)(COS(=O)(=O)O)COS(=O)(=O)O)nn2)C[C@@H](O[C@@H]2OC(CO)[C@H](O)C(O[C@@H](CC3CCCCC3)C(=O)O)C2NC(=O)Cn2cc(COCCOCCOCCOCCOCc3cn(CC(=O)NC4C(O[C@@H](CC5CCCCC5)C(=O)O)[C@@H](O)C(CO)O[C@H]4O[C@@H]4CC(C(=O)NCCNC(=O)c5cn(CC(COS(=O)(=O)O)(COS(=O)(=O)O)COS(=O)(=O)O)nn5)CC(CC)C4O[C@@H]4OC(C)[C@@H](O)C(O)C4O)nn3)nn2)C1O[C@@H]1OC(C)[C@@H](O)C(O)C1O (some centres unmarked) [Compound 206],–,–,–,–,1.6
